The results in this text go back to patent publication EP0011821A2, “Antiseborrhoeic hair treatment composition” (Henkel Kommanditgesellschaft auf Aktien, priority 1978, dated 1980).

In the test the test system is Meerschweinchen. As to the kind of experiment: Test for anti-dandruff effect on oleic-acid-treated back skin of shorn guinea pigs (skin fold thickness and visual scaling score). It is filed as in vivo. The note with it: 5 % test substance with 5 % Ölsäure in 70 %igem Ethanol, topical on the back, 60 min exposure on 4 consecutive days, relative to skin treated with 5 % Ölsäure in 70 % Ethanol only, significant (+, 95 %). The source says:
Die Prüfung auf Antischuppenwirkung wurde in folgender Weise durchgeführt:
Die Prüfsubstanz wurde in 5 % iger Konzentration zusammen mit 5 % Ölsäure in 70 %igem Ethanol gelöst und in alternierender Reihenfolge und in rotierendem Schema auf den Rücken junger, geschorener weiblicher Meerschweinchen im Gewicht von 600 ± 50 g aufgetragen. Die Einwirkungszeit der Substanz wurde dabei auf 60 Minuten begrenzt, da diese Zeit ausreichte, um eine Wirkung zu erzielen. Anschließend wurden die Tiere mit warmem Wasser 30 Sekunden lang abgeduscht. Die Reihenfolge der Tiere bei der Applikation wechselte dabei täglich, um Differenzen in der Einwirkungszeit zwischen dem ersten und letzten Tier der Gruppe auf ein Minimum zu begrenzen. Diese Behandlung geschah an vier aufeinanderfolgenden Tagen, darauf folgte eine Ruhezeit (Entwicklungszeit von drei Tagen). Am siebenten Tag wurde ausgewertet, und zwar a) kutimetrisch auf Hautfaltendicke instrumentell mit dem Cutimeter nach Götze und b) visuell auf Schuppenbildung bzw. Hemmung nach einer 4-Punkte-Skala folgender Definition: • 0 = keine Schuppen • 1 = leichte Schuppen • 2 = kräftige Schuppen • 3= starke Schuppen mit Rötung • 4 = Krusten mit Aufrichten der Haare.
Die Versuchsgruppe bestand aus 6 Tieren. Das Kollektiv wurde mathematisch auf Homogenität geprüft und nach Eliminierung signifikant abweichender Tiere wurden Mittelwert und Streuung berechnet. […]

Consider `COc1ccc(Cc2nccc3cc(OC)c(OC)cc23)cc1OC` [Papaverin, 1-(3',4'-dimethoxybenzyl)-6,7-dimethoxy-isochinolin], for which the “Hautdickenmessung Hemmung %” value (evaluated on day 7 with the Cutimeter nach Götze) came out at 17%. Besides, the “Hautschuppenmessung Hemmung %” value (evaluated visually on day 7 on a 0-4 scale) was 100%.
